In patent US8404696B2, “Quinazoline-2,4-dione derivative, and medical compositions for the prophylaxis and treatment of cranial nerve disease containing the same” (Shin Poong Pharmaceutical Co., Ltd., priority 2008, dated 2013):
In brackets after ≈: the same amount, converted by molar mass.

Columns and labels:
[1] = system: superoxide dismutase (SOD); assay: Increase of superoxide dismutase (SOD) activity in mouse brain cells; format: cell-based; conditions: 100 μg/ml
Method: (§1) ROS inhibitory effect of compounds was represented to the dose suppressing 50% of production of reactive oxygen compared to control. […] The activity of superoxide dismutase (SOD) was measured by using a kit acquired in Sigma.

[2] = system: pentylentetrazole (PTZ)-induced convulsion; assay: Anti-convulsant effect, pentylentetrazole (PTZ) test; format: in vivo; conditions: 10 mg/kg intraperitoneally, PTZ 80 mg/kg subcutaneously; for mortality rate / Induction percentage of convulsion: (animals/total); for mortality rate: negative control 70(17/23); for Induction percentage of convulsion: negative control 100(23/23); for Initiation time of convulsion: negative control 5.0 ± 0.7; for Duration of convulsion: negative control 46.7 ± 3.3
Method: An experiment was performed by the method of Ali et al. (Ali, A. et al. 2006, Pharmacological Reports, 58: 242-245). A 10 mg/kg dose of compound was intraperitoneally administered to identify the anti-convulsant effect and the effect was observed (Table 8). Researching the process of activity was performed by the Anti-epileptic Drug Development Program (ADD) of NIH during development of the anti-convulsant drug. One of the assessed items of anti-convulsant activity in the first step of this program is the pentylentetrazole (PTZ) test. […] After 10 mg/kg of the testing drug was administered, assessment was performed by estimating the initiation time of convulsion, duration until convulsion completely disappeared and mortality rate. It was assessed as having an anti-convulsant effect when a single episode of clonic spasm was not shown over 5 seconds on at least one of the 4 laboratory animals after PTZ administration.

[3] = system: mixed culture of nerve cells-glial cells; assay: Protecting effect on NMDA-induced nerve cell death (LDH release); format: cell-based, ICR mouse; conditions: 100 μM NMDA, LDH release after 24 hours
Method: Isolation and culture of nerve cells were performed by Choi's method (Choi, D. W. 1985, Neurosci. Lett., 58: 293-297). That is, the cortex was isolated in fetus ICR mouse that was 14 days pregnant, and then single cells were obtained from the tissue using pipette. The cells were aliquoted into 2×10^5/well density in a 24-well plate (Falcon) in which glial cells of cerebral cortex had been cultured in an incubator maintained at 37° C. with 5% CO2 for over 3 weeks. The culture medium was supplemented with MEM (minimum essential medium, Sigma), 2 mM glutamine, 21 mM glucose, 26.5 mM bicarbonate, 10% fetal bovine serum (FBS). In 3-5 days after aliquot, 10 μM Ara-C (cytosine arabinoside) was treated to suppress proliferation of neuroglia. And it was treated with 100 μM NMDA and 1 μg/mL or 2 μg/mL of each sample (compound) to induce the death of nerve cells due to excitable toxicity for 20 minutes, in 12-15 days after aliquot. Because of nerve cell death, lactate dehydrogenase (LDH) accumulated in proportion to the number of dead cells. In 24 hours after drug treatment, the amount of dehydrogenase (LDH) released to outside of cells was measured by using an […] measurement kit (CytoTox 96, Promega). After the reaction was completed, the change of absorbance depending on the amount of LDH was measured by using a microplate spectrophotometer.

thoracic aorta of rats = assay: Relaxing effect on thoracic aorta contracted by phenylephrine (organ bath); parameters: species or system rats of SD species; conditions: Rattus norvegicus; 67 μg/mL; phenylephrine 0.5 μM; mean n = 3; read-out: Relaxation percentage
From the text: After male rats of SD species (250-300 g) were anesthetized by inhalation of ether, their thoracic aortas were extracted and put into a Krebs buffer (mM; NaCl 118, NaHCO3 27.3, KCl 4.8, MgSO4 1.2, KH2PO4 1.0, CaCl2 1.25, glucose 11.1). 2 mm of aortic ring was made under dissecting microscope and cultured in an organ bath to measure the tension of blood vessels. The organ bath was filled with Krebs buffer and saturated with 95% O2, 5% CO2 to maintain dissolved oxygen and physiological pH. Changing of tension was measured by a tension meter (Hugo-sachs, model K30) and recorded by physiological recorder (Coulbourn polygraph). The length of the blood vessels was increased step by step to make 1.0 g of basal tension for 90 minutes. The equilibrated blood vessel was contracted by phenylephrine (0.5 μM). When the contraction furrow reached equilibrium, compounds were added, followed by observation of relaxation response.

mouse brain cells = assay: Inhibitory effect on ROS production in brain cells (DCF-DA, NMDA-induced); format: cell-based; conditions: 24 h; dose suppressing 50% of production of reactive oxygen compared to control; mouse brain cells; read-out: ROS inhibitory effect ID50
Method: Oxidative stress was measured to test inhibitory effects on the production of reactive oxygen species (ROS) by using DCF-DA, which is a fluorescent probe. Brain cells were obtained from brain cortex of mouse to prepare cell solution with 2×10^6 cells/ml. Each brain cell was treated with 11 μM of DCF-DA followed by reaction in 37° C., 5% CO2 incubator for an hour. After washing twice, Compound 3 was treated with a concentration of 125 μg/ml and 250 μg/ml. At the same time, 300 μM of NMDA was treated and it was incubated in 37° C., 5% CO2 incubator for 24 hours.
as §1

Compound: CCOC(=O)N(CCCCN(CCCn1c(=O)[nH]c2ccccc2c1=O)C(=O)OCC)CCCn1c(=O)[nH]c2ccccc2c1=O [Compound 16, [3-(2,4-dioxo-1,4-dihydro-2H-quinazolin-3-yl)propyl]-(4-{[3-(2,4-dioxo-1,4-dihydro-2H-quinazolin-3-yl)propyl]ethoxycarbonylamino}butyl)carbamic Acid ethyl ester]
- Increase of SOD activity, compared to control [1]: 7.5 ± 2.3
- mortality rate [2]: 0(0/6) %
- Induction percentage of convulsion [2]: 100(6/6) %
- Initiation time of convulsion [2]: 7.6 ± 1.7 min
- Duration of convulsion [2]: 6.4 ± 2.3 min
- Inhibitory effect of cell death by NMDA-induced excitable neurotoxicity ([3]; 1 μg/ml compound): 18.1%

Compound: 3-[3-(4-{N-[3-(2,4-dioxo-1,4-dihydro-2H-quinazolin-3-yl)propyl]-N-benzylamino}butyl)-N-benzylamino]propyl-1H-quinazoline-2,4-dione [Compound 15]
- Increase of SOD activity, compared to control [1]: 1.3 ± 3.1
- mortality rate [2]: 83(5/6) %
- Induction percentage of convulsion [2]: 83(5/6) %
- Initiation time of convulsion [2]: 25.7 ± 7.2 min
- Duration of convulsion [2]: 34.3 ± 7.2 min
- Inhibitory effect of cell death by NMDA-induced excitable neurotoxicity ([3]; 1 μg/ml compound): 22.4%
- Inhibitory effect of cell death by NMDA-induced excitable neurotoxicity ([3]; 2 μg/ml compound): 22.3%

Compound: O=C(N(CCCCNCCCn1c(=O)[nH]c2ccccc2c1=O)CCCn1c(=O)[nH]c2ccccc2c1=O)C(F)(F)F [Compound 36, N-[3-(2,4-dioxo-1,4-dihydro-2H-quinazolin-3-yl)propyl]-N-{4-[3-(2,4-dioxo-1,4-dihydro-2H-quinazolin-3-yl)propylamino]butyl}-2,2,2-trifluoroacetamide]
- Increase of SOD activity, compared to control [1]: 4.9 ± 1.2
- mortality rate [2]: 33(2/6) %
- Induction percentage of convulsion [2]: 100(6/6) %
- Initiation time of convulsion [2]: 8.9 ± 2.3 min
- Duration of convulsion [2]: 25.1 ± 9.7 min
- Inhibitory effect of cell death by NMDA-induced excitable neurotoxicity ([3]; 1 μg/ml compound): 32.2%
- Inhibitory effect of cell death by NMDA-induced excitable neurotoxicity ([3]; 2 μg/ml compound): 18.4%

Compound: CC(C)(C)OC(=O)N(CCCCN(CCCn1c(=O)[nH]c2ccccc2c1=O)C(=O)OC(C)(C)C)CCCn1c(=O)[nH]c2ccccc2c1=O [Compound 17, (4-{tert-butoxycarbonyl-[3-(2,4-dioxo-1,4-dihydro-2H-quinazolin-3-yl)propyl]amino}butyl)-[3-(2,4-dioxo-1,4-dihydro-2H-quinazolin-3-yl)propyl]carbamic acid tert-butyl ester]
- Increase of SOD activity, compared to control [1]: 0.3 ± 0.0
- inhibition at 67 µg/mL (thoracic aorta of rats): 51.7%
- Inhibitory effect of cell death by NMDA-induced excitable neurotoxicity ([3]; 1 μg/ml compound): 21.0%
- Inhibitory effect of cell death by NMDA-induced excitable neurotoxicity ([3]; 2 μg/ml compound): 10.7%

Compound: O=C1c2ccccc2C(=O)N1CCCNCCCCNCCCn1c(=O)[nH]c2ccccc2c1=O [Compound 28, 3-(3-{4-[3-(1,3-dioxo-1,3-dihydro-isoindole-2-yl)propylamino]butylamino}propyl)-1H-quinazoline-2,4-dione]
- mortality rate [2]: 0(0/6) %
- Induction percentage of convulsion [2]: 100(6/6) %
- Initiation time of convulsion [2]: 4.8 ± 2.2 min
- Duration of convulsion [2]: 26.9 ± 6.5 min
- IC50 (mouse brain cells): 30.9 ± 13.7 µg/mL (≈ 64.7 µM)
- inhibition at 67 µg/mL (thoracic aorta of rats): 8.3%
- Inhibitory effect of cell death by NMDA-induced excitable neurotoxicity ([3]; 1 μg/ml compound): 23.1%
- Inhibitory effect of cell death by NMDA-induced excitable neurotoxicity ([3]; 2 μg/ml compound): 22.4%

Compound: CC(C)(C)OC(=O)N(CCCCNCCCn1c(=O)[nH]c2ccccc2c1=O)CCCn1c(=O)[nH]c2ccccc2c1=O [Compound 11, [3-(2,4-dioxo-1,4-dihydro-2H-quinazolin-3-yl)propyl]-{4-[3-(2,4-dioxo-1,4-dihydro-2H-quinazolin-3-yl)propylamino]butyl}carbamic Acid tert-butyl ester]
- Increase of SOD activity, compared to control [1]: 2.3 ± 3.4
- mortality rate [2]: 17(1/6) %
- Induction percentage of convulsion [2]: 100(6/6) %
- Initiation time of convulsion [2]: 10.1 ± 4.9 min
- Duration of convulsion [2]: 44.9 ± 5.8 min
- inhibition at 67 µg/mL (thoracic aorta of rats): 10.9%
- Inhibitory effect of cell death by NMDA-induced excitable neurotoxicity ([3]; 1 μg/ml compound): 15.0%

Compound: O=C(NCCCNCCCCNCCCn1c(=O)[nH]c2ccccc2c1=O)c1ccc(O)cc1 [Compound 8, N-(3-{4-[3-(2,4-dioxo-1,4-dihydro-2H-quinazolin-3-yl)propylamino]butylamino}propyl)-4-hydroxybenzamide]
- IC50 (mouse brain cells): 103 ± 20.4 µg/mL (≈ 220 µM)
- inhibition at 67 µg/mL (thoracic aorta of rats): 35.7%
- Inhibitory effect of cell death by NMDA-induced excitable neurotoxicity ([3]; 1 μg/ml compound): 20.0%
- Inhibitory effect of cell death by NMDA-induced excitable neurotoxicity ([3]; 2 μg/ml compound): 28.2%

Compound: CC(=O)N(CCCCN(CCCn1c(=O)[nH]c2ccccc2c1=O)C(C)=O)CCCNC(=O)c1ccc(O)cc1 [Compound 21, N-{3-[acetyl-(4-{acetyl-[3-(2,4-dioxo-1,4-dihydro-2H-quinazolin-3-yl)propyl]amino}butyl)amino]propyl}-4-hydroxybenzamide]
- Increase of SOD activity, compared to control [1]: −0.3 ± 3.7
- mortality rate [2]: 0(0/6) %
- Induction percentage of convulsion [2]: 67(4/6) %
- Initiation time of convulsion [2]: 22.2 ± 11.9 min
- Duration of convulsion [2]: 6.7 ± 3.1 min
- inhibition at 67 µg/mL (thoracic aorta of rats): 2.6%
- Inhibitory effect of cell death by NMDA-induced excitable neurotoxicity ([3]; 1 μg/ml compound): 19.6%
- Inhibitory effect of cell death by NMDA-induced excitable neurotoxicity ([3]; 2 μg/ml compound): 16.6%

Compound: Cn1c(=O)n(CCCN(CCCCN(CCCn2c(=O)c3ccccc3n(C)c2=O)C(=O)OC(C)(C)C)C(=O)OC(C)(C)C)c(=O)c2ccccc21 [Compound 26, (4-{tert-butoxycarbonyl-[3-(1-methyl-2,4-dioxo-1,4-dihydro-2H-quinazolin-3-yl)propyl]amino}butyl)-[3-(1-methyl-2,4-dioxo-1,4-dihydro-2H-quinazolin-3-yl)propyl]carbamic acid tert-butyl ester]
- Increase of SOD activity, compared to control [1]: 0.7 ± 5.7
- mortality rate [2]: 50(3/6) %
- Induction percentage of convulsion [2]: 83(5/6) %
- Initiation time of convulsion [2]: 15.4 ± 9.0 min
- Duration of convulsion [2]: 33.0 ± 9.5 min
- inhibition at 67 µg/mL (thoracic aorta of rats): 3.7%
- Inhibitory effect of cell death by NMDA-induced excitable neurotoxicity ([3]; 1 μg/ml compound): 8.8%
- Inhibitory effect of cell death by NMDA-induced excitable neurotoxicity ([3]; 2 μg/ml compound): 29.7%
